The structures appear in SMILES notation.

This experiment has as its target Focal adhesion kinase 1 (Homo sapiens, UniProt Q05397).

Sequence of Focal adhesion kinase 1 (Q05397 whole entry): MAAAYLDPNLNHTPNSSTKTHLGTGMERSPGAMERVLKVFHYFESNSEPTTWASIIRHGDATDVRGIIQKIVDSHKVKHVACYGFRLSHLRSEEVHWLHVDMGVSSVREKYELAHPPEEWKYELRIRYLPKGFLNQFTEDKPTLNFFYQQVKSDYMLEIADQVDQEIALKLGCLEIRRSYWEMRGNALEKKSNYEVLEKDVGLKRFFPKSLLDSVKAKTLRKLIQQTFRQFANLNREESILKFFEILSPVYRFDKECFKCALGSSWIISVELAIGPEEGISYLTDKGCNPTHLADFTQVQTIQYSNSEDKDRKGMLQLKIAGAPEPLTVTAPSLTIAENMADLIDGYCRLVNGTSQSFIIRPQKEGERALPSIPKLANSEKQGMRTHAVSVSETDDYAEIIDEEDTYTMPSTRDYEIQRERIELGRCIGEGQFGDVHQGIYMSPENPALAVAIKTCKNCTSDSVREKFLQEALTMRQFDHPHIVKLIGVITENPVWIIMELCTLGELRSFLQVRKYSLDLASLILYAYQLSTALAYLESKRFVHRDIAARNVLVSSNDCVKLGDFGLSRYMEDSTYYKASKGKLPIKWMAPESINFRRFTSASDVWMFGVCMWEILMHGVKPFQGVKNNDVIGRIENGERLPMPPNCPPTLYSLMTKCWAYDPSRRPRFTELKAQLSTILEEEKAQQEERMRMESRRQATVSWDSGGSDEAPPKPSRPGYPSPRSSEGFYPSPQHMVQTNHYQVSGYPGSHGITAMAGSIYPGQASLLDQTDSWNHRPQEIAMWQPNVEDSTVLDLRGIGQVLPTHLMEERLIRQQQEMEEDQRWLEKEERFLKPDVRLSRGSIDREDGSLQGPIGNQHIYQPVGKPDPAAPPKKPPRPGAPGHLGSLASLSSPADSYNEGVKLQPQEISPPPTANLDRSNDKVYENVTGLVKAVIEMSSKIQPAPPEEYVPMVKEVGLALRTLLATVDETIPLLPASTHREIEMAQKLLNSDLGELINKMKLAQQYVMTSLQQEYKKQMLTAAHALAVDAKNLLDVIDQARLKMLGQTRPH

The compound `COc1cc(Nc2ncc3ccn(-c4cccc(CCC(=O)O)n4)c3n2)cc(OC)c1OC` showed a half-inhibitory concentration (IC50) of 4 nM.

As to `COc1cc(Nc2ncc3ccn(-c4ccccn4)c3n2)cc(OC)c1OC`, the IC50 was 212 nM.

A word on the IC50: it is the concentration at which inhibition is half-maximal.

Source of the values: ChEMBL document CHEMBL1147704, “Design and synthesis of 7H-pyrrolo[2,3-d]pyrimidines as focal adhesion kinase inhibitors. Part 2” (Bioorg Med Chem Lett, 2006).
